Results from ChEMBL document CHEMBL1149118, “Validation of molecular docking calculations involving FGF-1 and FGF-2” (J Med Chem, 2004).

Tests used:
[1] = target: T1, Fibroblast growth factor 2 (Homo sapiens, UniProt P09038); assay: Dissociation constant for Fibroblast growth factor 2 (None observed)
[2] = target: T2, Fibroblast growth factor 1 (Homo sapiens, UniProt P05230); assay: Dissociation constant for Fibroblast growth factor 1
[3] = target: T2, Fibroblast growth factor 1; assay: Binding affinity for Fibroblast growth factor 1
[4] = target: T1, Fibroblast growth factor 2; assay: Binding affinity for Fibroblast growth factor 2
[5] = target: T1, Fibroblast growth factor 2; assay: Dissociation constant for Fibroblast growth factor 2
[6] = target: T1, Fibroblast growth factor 2; assay: Dissociation constant for Fibroblast growth factor 2 (None Observed)

T1 sequence (P09038 143-288 limits assumed): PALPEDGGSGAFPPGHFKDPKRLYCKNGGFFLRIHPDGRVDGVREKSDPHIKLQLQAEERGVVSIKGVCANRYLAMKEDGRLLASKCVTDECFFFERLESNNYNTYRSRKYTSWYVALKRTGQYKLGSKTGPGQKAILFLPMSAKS
T2 sequence (P05230 whole entry): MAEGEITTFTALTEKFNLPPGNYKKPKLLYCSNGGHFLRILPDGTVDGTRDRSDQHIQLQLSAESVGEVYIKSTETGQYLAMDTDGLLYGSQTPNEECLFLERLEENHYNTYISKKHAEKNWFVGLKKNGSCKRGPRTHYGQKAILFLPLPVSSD

Kd [1]	Kd [2]	Delta G [3]	Delta G [4]	Kd [5]	Kd [6]	SMILES
None observed	921 µM	-4.14 kcal/mol	–	–	–	CO[C@@H]1O[C@@H](COS(=O)(=O)O)[C@@H](OS(=O)(=O)O)[C@H](OC(=O)c2ccccc2)[C@@H]1OC(=O)c1ccccc1
–	3250 µM	-3.39 kcal/mol	-2.9 kcal/mol	7500 µM	–	O=S(=O)(O)OC[C@H]1OCC[C@@H](OCCCOc2ccccc2)C1OS(=O)(=O)O (some centres not stated)
–	1.15 µM	-8.1 kcal/mol	-6.53 kcal/mol	16.2 µM	–	CO[C@@H]1O[C@@H](COS(=O)(=O)O)[C@@H](O[C@@H]2O[C@@H](COS(=O)(=O)O)[C@H](OS(=O)(=O)O)[C@H](OS(=O)(=O)O)[C@@H]2OS(=O)(=O)O)[C@H](OS(=O)(=O)O)[C@@H]1OS(=O)(=O)O
–	340 µM	-4.73 kcal/mol	-4.89 kcal/mol	258 µM	–	[N-]=[N+]=NCC1OC(OS(=O)(=O)O)C(OS(=O)(=O)O)C(OS(=O)(=O)O)C1OS(=O)(=O)O (configuration not stated)
–	0.0078 µM	-11.1 kcal/mol	-8.08 kcal/mol	1.18 µM	–	O=S(=O)(O)OC[C@@H]1O[C@H](OS(=O)(=O)O)[C@H](OC2O[C@@H](COS(=O)(=O)O)[C@@H](S(=O)(=O)O)[C@H](O[C@H]3O[C@@H](COS(=O)(=O)O)[C@@H](OS(=O)(=O)O)[C@H](OS(=O)(=O)O)[C@H]3OS(=O)(=O)O)[C@H]2OS(=O)(=O)O)[C@@H](OS(=O)(=O)O)[C@@H]1OS(=O)(=O)O (some centres not stated)
–	307 µM	-4.79 kcal/mol	-2.86 kcal/mol	8020 µM	–	COC1C(OCc2ccccc2)C2COC(O2)C1OS(=O)(=O)O (configuration not stated)
–	300 µM	-4.8 kcal/mol	-4.44 kcal/mol	550 µM	–	CO[C@H]1O[C@@H](COCC(=O)N(CCOS(=O)(=O)O)CC(=O)NC2CCCCC2)[C@@H](OS(=O)(=O)O)[C@H](OS(=O)(=O)O)[C@H]1OS(=O)(=O)O
–	0.54 µM	-8.54 kcal/mol	-7.09 kcal/mol	6.3 µM	–	O=S(=O)(O)OC[C@@H]1O[C@H](O[C@H]2[C@H](OS(=O)(=O)O)[C@H](OS(=O)(=O)O)C(OS(=O)(=O)O)O[C@H]2COS(=O)(=O)O)[C@@H](OS(=O)(=O)O)[C@H](OS(=O)(=O)O)[C@H]1OS(=O)(=O)O (some centres not stated)
–	120 µM	-5.35 kcal/mol	-4.67 kcal/mol	375 µM	–	O=C(CN(Cc1ccccc1)C(=O)C1OC(OS(=O)(=O)O)C(OS(=O)(=O)O)C(OS(=O)(=O)O)C1OS(=O)(=O)O)NC1CCCCC1 (configuration not stated)
–	1.2 µM	-8.07 kcal/mol	-6.65 kcal/mol	13.3 µM	–	O=S(=O)(O)OC[C@@H]1O[C@@H](O[C@H]2[C@H](OS(=O)(=O)O)[C@H](OS(=O)(=O)O)C(OS(=O)(=O)O)O[C@H]2COS(=O)(=O)O)[C@@H](OS(=O)(=O)O)[C@H](OS(=O)(=O)O)[C@H]1OS(=O)(=O)O (some centres not stated)
–	0.13 µM	-9.39 kcal/mol	-6.24 kcal/mol	26.7 µM	–	O=S(=O)(O)C[C@@H]1[C@H](OS(=O)(=O)O)O[C@H](OS(=O)(=O)O)[C@H](O[C@H]2O[C@@H](COS(=O)(=O)O)[C@@H](OS(=O)(=O)O)[C@H](OS(=O)(=O)O)[C@H]2OS(=O)(=O)O)[C@H]1OS(=O)(=O)O
–	0.74 µM	-8.36 kcal/mol	-7.17 kcal/mol	5.5 µM	–	O=S(=O)(O)C[C@@H]1[C@@H](O[C@]2(COS(=O)(=O)O)O[C@H](COS(=O)(=O)O)[C@@H](OS(=O)(=O)O)[C@@H]2OS(=O)(=O)O)O[C@@H](CS(=O)(=O)O)[C@@H](OS(=O)(=O)O)[C@H]1OS(=O)(=O)O
–	3410 µM	-3.36 kcal/mol	-3.13 kcal/mol	5100 µM	–	O=S(=O)(O)OC[C@H]1OCC[C@@H](OCc2ccccc2)C1OS(=O)(=O)O (some centres not stated)
–	474 µM	-4.53 kcal/mol	-4.98 kcal/mol	223 µM	–	O=S(=O)(O)c1ccc2c(S(=O)(=O)O)cc(S(=O)(=O)O)cc2c1 [NAPHTHALENE TRISULFONATE]
–	609 µM	-4.38 kcal/mol	–	–	None Observed	O=C(O)c1cc(/N=N/c2ccc(S(=O)(=O)Nc3ccccn3)cc2)ccc1O [SULFASALAZINE]
–	5940 µM	-3.04 kcal/mol	-2.39 kcal/mol	17400 µM	–	CO[C@@H]1CCO[C@H](COS(=O)(=O)O)C1OS(=O)(=O)O (some centres not stated)
–	338 µM	-4.73 kcal/mol	-4.91 kcal/mol	249 µM	–	COC1OC(C)C(OCc2ccccc2)C(OS(=O)(=O)O)C1OS(=O)(=O)O (configuration not stated)
–	37.5 µM	-6.04 kcal/mol	-5.19 kcal/mol	155 µM	–	O=S(=O)(O)OC[C@@H]1O[C@H](OS(=O)(=O)O)[C@H](OS(=O)(=O)O)[C@@H](OS(=O)(=O)O)[C@@H]1OS(=O)(=O)O
None observed	1340 µM	-3.92 kcal/mol	–	–	–	C=CCOC1C(C)OC(OC)C(OS(=O)(=O)O)C1OS(=O)(=O)O (configuration not stated)
–	127 µM	-5.31 kcal/mol	-4.72 kcal/mol	343 µM	–	CO[C@H]1O[C@H](COS(=O)(=O)O)[C@@H](OS(=O)(=O)O)[C@H](OS(=O)(=O)O)[C@@H]1OS(=O)(=O)O
